Laboratory results as given in the NIST ThermoML archive (doi:10.1016/j.jct.2018.05.008).

Assay: mn = molality of the nth substance listed, in mol/kg
Conditions: 101.3 kPa, Liquid, Vibrating tube method

NCC(=O)O [2-aminoacetic acid] + O
mass density [kg/m3]
Conditions | m1 = 0.0602 | m1 = 0.1201 | m1 = 0.1992 | m1 = 0.3016 | m1 = 0.3854 | m1 = 0.4462 | m1 = 0.5271 | m1 = 0.6444 | m1 = 0.7856
288.15 K | 1001.04 | 1002.97 | 1005.49 | 1008.71 | 1011.3 | 1013.17 | 1015.62 | 1019.16 | 1023.32
298.15 K | 998.98 | 1000.87 | 1003.34 | 1006.49 | 1009.02 | 1010.84 | 1013.23 | 1016.66 | 1020.69
308.15 K | 995.95 | 997.8 | 1000.22 | 1003.32 | 1005.82 | 1007.61 | 1009.97 | 1013.36 | 1017.38
310.15 K | 995.25 | 997.1 | 999.51 | 1002.59 | 1005.07 | 1006.86 | 1009.22 | 1012.6 | 1016.6
318.15 K | 992.13 | 993.97 | – | 999.45 | 1001.91 | 1003.69 | 1006.03 | 1009.41 | 1013.42

N[C@@H](CO)C(=O)O [L-serine] + O
mass density [kg/m3]
Conditions | m1 = 0.0489 | m1 = 0.104 | m1 = 0.2 | m1 = 0.292 | m1 = 0.3911 | m1 = 0.471 | m1 = 0.5884 | m1 = 0.6788 | m1 = 0.7168
288.15 K | 1001.29 | 1003.76 | 1008.02 | 1012.04 | 1016.28 | 1019.63 | 1024.47 | 1028.16 | 1029.64
298.15 K | 999.22 | 1001.64 | 1005.81 | 1009.76 | 1013.93 | 1017.22 | 1021.98 | 1025.59 | 1027.05
308.15 K | 996.21 | 998.6 | 1002.72 | 1006.6 | 1010.72 | 1013.95 | 1018.62 | 1022.22 | 1023.66
310.15 K | 995.5 | 997.89 | 1002 | 1005.88 | 1009.98 | 1013.21 | 1017.85 | 1021.44 | 1022.88
318.15 K | 992.38 | 994.75 | 998.83 | 1002.65 | 1006.72 | 1009.93 | 1014.6 | 1018.12 | 1019.57

O [water] + NCC(=O)O
m2 = 0
Conditions | mass density [kg/m3]
308.15 K | 994.07
310.15 K | 993.37
318.15 K | 990.26

C[C@H](N)C(=O)O [(S)-2-aminopropanoic acid] + O
mass density [kg/m3]
Conditions | m1 = 0.0522 | m1 = 0.1036 | m1 = 0.2032 | m1 = 0.3122 | m1 = 0.3941 | m1 = 0.4964 | m1 = 0.5873 | m1 = 0.6752 | m1 = 0.791
288.15 K | 1000.63 | 1002.12 | 1004.98 | 1008.03 | 1010.29 | 1013.01 | 1015.47 | 1017.77 | 1020.75
298.15 K | 998.58 | 1000.04 | 1002.84 | 1005.84 | 1008.05 | 1010.78 | 1013.15 | 1015.38 | 1018.3
308.15 K | 995.56 | 997 | 999.75 | 1002.71 | 1004.9 | 1007.59 | 1009.93 | 1012.15 | 1015.04
310.15 K | 994.85 | 996.28 | 999.03 | 1001.99 | 1004.18 | 1006.87 | 1009.2 | 1011.4 | 1014.3
318.15 K | 991.74 | 993.17 | 995.9 | 998.84 | 1001 | 1003.68 | 1006.01 | 1008.22 | 1011.1

O [water] + CCC(N)C(=O)O
Conditions | mass density [kg/m3]
310.15 K, m2 = 0 | 993.32

CCCCn1cc[n+](C)c1.[Br-] [1-butyl-3-methylimidazolium bromide] + O
mass density [kg/m3]
Conditions | 288.15 K | 298.15 K | 308.15 K | 310.15 K | 318.15 K
m1 = 0.0493 | 1001.53 | 999.41 | 996.35 | 995.63 | 992.48
m1 = 0.0509 | 1001.61 | 999.52 | 996.47 | 995.75 | 992.61
m1 = 0.0513 | 1001.57 | 999.46 | 996.38 | 995.68 | 992.51
m1 = 0.0518 | 1001.67 | 999.57 | 996.52 | 995.81 | 992.66
m1 = 0.0557 | 1001.85 | 999.75 | 996.69 | 995.98 | 992.83
m1 = 0.1002 | 1003.91 | 1001.72 | 998.61 | 997.87 | 994.63
m1 = 0.1004 | 1004.02 | 1001.86 | 998.75 | 998.04 | 994.69
m1 = 0.101 | 1004.05 | 1001.87 | 998.72 | 998 | 994.83
m1 = 0.1073 | 1004.38 | 1002.22 | 999.1 | 998.38 | 995.11
m1 = 0.1133 | 1005.08 | 1002.9 | 999.78 | 999.06 | 995.72
m1 = 0.1957 | 1008.66 | 1006.35 | 1003.13 | 1002.38 | 999.01
m1 = 0.2009 | 1008.82 | 1006.51 | 1003.27 | 1002.54 | 999.26
m1 = 0.201 | 1008.91 | 1006.62 | 1003.37 | 1002.65 | 999.35
m1 = 0.2016 | 1009.08 | 1006.79 | 1003.57 | 1002.83 | 999.57
m1 = 0.2345 | 1010.39 | 1008.06 | 1004.81 | 1004.05 | 1000.65
m1 = 0.2633 | 1012.6 | 1010.24 | 1006.95 | 1006.2 | 1002.9
m1 = 0.2918 | 1013.08 | 1010.67 | 1007.36 | 1006.6 | 1003.16
m1 = 0.2964 | 1013.29 | 1010.87 | 1007.54 | 1006.76 | 1003.29
m1 = 0.2981 | 1013.19 | 1010.75 | 1007.42 | 1006.65 | 1003.33
m1 = 0.3007 | 1013.75 | 1011.3 | 1007.96 | 1007.19 | 1003.81

O [water] + N[C@@H](CO)C(=O)O
m2 = 0
Conditions | mass density [kg/m3]
308.15 K | 994.06
310.15 K | 993.36

C[C@@H](O)[C@H](N)C(=O)O [L-threonine] + O
mass density [kg/m3]
Conditions | m1 = 0.1926 | m1 = 0.2858 | m1 = 0.3869 | m1 = 0.4789 | m1 = 0.5872 | m1 = 0.6687
288.15 K | 1007.25 | 1011.08 | 1015.18 | 1018.78 | 1022.93 | 1026.01
298.15 K | 1005.04 | 1008.79 | 1012.82 | 1016.36 | 1020.45 | 1023.46
308.15 K | 1001.91 | 1005.62 | 1009.58 | 1013.09 | 1017.13 | 1020.1
310.15 K | 1001.19 | 1004.89 | 1008.86 | 1012.35 | 1016.39 | 1019.34
318.15 K | 998.01 | 1001.68 | 1005.6 | 1009.09 | 1013.09 | 1016.02

O [water] + CCCCn1cc[n+](C)c1.[Br-]
m2 = 0
Conditions | mass density [kg/m3]
308.15 K | 994.07
310.15 K | 993.37
318.15 K | 990.26

CCC(N)C(=O)O (stereo not drawn) [(.+-.)-α-aminobutyric acid] + O
mass density [kg/m3]
Conditions | m1 = 0.2006 | m1 = 0.4945 | m1 = 0.5944 | m1 = 0.6791 | m1 = 0.7812 | m1 = 0.8868 | m1 = 0.9902
288.15 K | 1004.67 | 1012.46 | 1015 | 1017.13 | 1019.67 | 1022.24 | 1024.71
298.15 K | 1002.5 | 1010.14 | 1012.62 | 1014.71 | 1017.19 | 1019.71 | 1022.13
308.15 K | 999.41 | 1006.94 | 1009.38 | 1011.44 | 1013.88 | 1016.36 | 1018.74
310.15 K | 998.69 | 1006.2 | 1008.64 | 1010.69 | 1013.12 | 1015.6 | 1017.97
318.15 K | 995.55 | 1003.01 | 1005.46 | 1007.5 | 1009.85 | 1012.32 | 1014.68

O [water] + C[C@H](N)C(=O)O
m2 = 0
Conditions | mass density [kg/m3]
308.15 K | 994.08
310.15 K | 993.38
318.15 K | 990.27

O [water] + C[C@@H](O)[C@H](N)C(=O)O
Conditions | mass density [kg/m3]
310.15 K, m2 = 0 | 993.32
